Laboratory results published in PubChem BioAssay AID330 (DTP/NCI, 2004).
Where “and” joins values, the source holds several entries; their conditions need not be identical. Equal entries are not always repeated. Inconclusive results and toxic doses are left out. How the source made its calls: active means survival T/C of 150% or more; inactive means T/C below 125% in these data.

Test system: P388 leukemia ip, CD2F1 mice, survival T/C
Experiment: NCI In Vivo Anticancer Drug Screen. Data for tumor model P388 Leukemia (intraperitoneal) in CD2F1 (CDF1) mice
Details: endpoint: median survival time, higher = longer survival
Outline: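 Mice carrying the transplanted tumor received test compound or vehicle. Survival was recorded in each group, and the value is the treated-group measurement divided by that of the vehicle-treated control group.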

[1] = dose: 50.0 mg/kg/injection, schedule: Q01DX005 (ip), vehicle: saline with Tween-80
[2] = dose: 100.0 mg/kg/injection, schedule: Q01DX005 (ip), vehicle: saline with Tween-80
[3] = dose: 200.0 mg/kg/injection, schedule: Q01DX005 (ip), vehicle: saline with Tween-80
[4] = dose: 25.0 mg/kg/injection, schedule: Q01DX009 (ip), vehicle: water
[5] = dose: 50.0 mg/kg/injection, schedule: Q01DX009 (ip), vehicle: water
[6] = dose: 50.0 mg/kg/injection, schedule: Q01DX009 (ip), vehicle: saline
[7] = dose: 100.0 mg/kg/injection, schedule: Q01DX009 (ip), vehicle: saline

Measured: T/C

S=c1[nH]c2ccccc2c2ccccc12
inactive: dose: 25.0 mg/kg/injection, schedule: Q01DX009 (ip), vehicle: Klucel (hydroxypropylcellulose) (HPC) 100 % of control | dose: 50.0 mg/kg/injection, schedule: Q01DX009 (ip), vehicle: Klucel (hydroxypropylcellulose) (HPC) 100 % of control | dose: 100.0 mg/kg/injection, schedule: Q01DX009 (ip), vehicle: Klucel (hydroxypropylcellulose) (HPC) 88 % of control | dose: 200.0 mg/kg/injection, schedule: Q01DX009 (ip), vehicle: Klucel (hydroxypropylcellulose) (HPC) 92 % of control

COC/C(=N/Nc1ccc([N+](=O)[O-])cc1[N+](=O)[O-])c1ccccc1
inactive: dose: 100.0 mg/kg/injection, schedule: Q04DX003 (ip), vehicle: saline with Tween-80 109 % of control | dose: 200.0 mg/kg/injection, schedule: Q04DX003 (ip), vehicle: saline with Tween-80 109 % of control | dose: 400.0 mg/kg/injection, schedule: Q04DX003 (ip), vehicle: saline with Tween-80 90 % of control

O=C1Nc2ccccc2C2CCCCC12 (configuration not stated)
inactive: [1] 107 % of control | [2] 102 % of control | [3] 98 % of control

CCOC(=O)C1OC(C2(C)OC3(OC4(C=CC3O)OC(C(C)C(=O)C(C)C(O)C(C)CC(C)c3c(Cl)cc(C)c(O)c3C(=O)O)C(C)CC4C)C(C)C2OC)CC1O (configuration not stated)
inactive: dose: 1.25 mg/kg/injection, schedule: Q01DX005 (ip), vehicle: Klucel (hydroxypropylcellulose) (HPC) 107 % of control | dose: 2.5 mg/kg/injection, schedule: Q01DX005 (ip), vehicle: Klucel (hydroxypropylcellulose) (HPC) 100 % of control

N#C/C(=N\NC(=O)c1cccnc1)c1ccc(Cl)cc1
inactive: [1] 92 % of control | [2] 92 % of control | [3] 101 % of control

CC1([N+](=O)[O-])C(=O)C2(N3CCOCC3)CCCC2C1c1ccccc1 (configuration not stated)
inactive: dose: 60.0 mg/kg/injection, schedule: Q01DX005 (ip), vehicle: Klucel (hydroxypropylcellulose) (HPC) 99 % of control | dose: 120.0 mg/kg/injection, schedule: Q01DX005 (ip), vehicle: Klucel (hydroxypropylcellulose) (HPC) 96 % of control | dose: 240.0 mg/kg/injection, schedule: Q01DX005 (ip), vehicle: Klucel (hydroxypropylcellulose) (HPC) 90 % of control

CC(=O)Nc1ccc(C(=O)N2C(=N)C(C#N)=C(O)/C2=C\c2ccc(Cl)c(Cl)c2)cc1
inactive: dose: 60.0 mg/kg/injection, schedule: Q01DX005 (ip), vehicle: saline 100 % of control | dose: 120.0 mg/kg/injection, schedule: Q01DX005 (ip), vehicle: saline 100 % of control | dose: 240.0 mg/kg/injection, schedule: Q01DX005 (ip), vehicle: saline 103 % of control

CN(C)CCCNc1cc(O)c2c(c1O)C(=O)c1ccccc1C2=O
inactive: dose: 12.5 mg/kg/injection, schedule: Q04DX003 (ip), vehicle: water 102 % of control | [4] 109 % of control | dose: 25.0 mg/kg/injection, schedule: Q04DX003 (ip), vehicle: water 100 % of control | [5] 120 % of control | dose: 50.0 mg/kg/injection, schedule: Q04DX003 (ip), vehicle: water 115 % of control | dose: 88.0 mg/kg/injection, schedule: Q01DX009 (ip), vehicle: other 110 % of control | dose: 100.0 mg/kg/injection, schedule: Q01DX009 (ip), vehicle: water 116 % of control | dose: 100.0 mg/kg/injection, schedule: Q04DX003 (ip), vehicle: water 103 % of control | dose: 133.0 mg/kg/injection, schedule: Q01DX009 (ip), vehicle: other 117 % of control | dose: 200.0 mg/kg/injection, schedule: Q04DX003 (ip), vehicle: water 111 % of control

c1ccc(N2CCN(C(c3cccs3)N3CCN(c4ccccc4)CC3)CC2)cc1
inactive: dose: 60.0 mg/kg/injection, schedule: Q01DX005 (ip), vehicle: saline with Tween-80 100 % of control | dose: 120.0 mg/kg/injection, schedule: Q01DX005 (ip), vehicle: saline with Tween-80 99 % of control

CC(C)OC(=S)SCC(=O)c1ccc(C(F)(F)F)cc1
inactive: dose: 50.0 mg/kg/injection, schedule: Q01DX009 (ip), vehicle: saline with Tween-80 105 % of control | dose: 100.0 mg/kg/injection, schedule: Q01DX009 (ip), vehicle: saline with Tween-80 104 % of control | dose: 200.0 mg/kg/injection, schedule: Q01DX009 (ip), vehicle: saline with Tween-80 98 % of control | dose: 400.0 mg/kg/injection, schedule: Q01DX009 (ip), vehicle: saline with Tween-80 100 % of control

O/N=C/c1cnns1
inactive: [1] 105 % of control | [2] 100 % of control | [3] 100 % of control

CO/C=C(/C#N)S(=O)(=O)/C(C#N)=C/OC
inactive: [1] 100 % of control | [2] 112 % of control | [3] 104 % of control

O=C1c2ccccc2-c2c1c1ccccc1c(=O)n2CCO
inactive: [1] 96 % of control | [2] 94 % of control | [3] 105 % of control

N#Cc1[nH]nc2nc[nH]c(=O)c12
inactive: dose: 100.0 mg/kg/injection, schedule: Q04DX002 (ip), vehicle: water 114 % of control | dose: 200.0 mg/kg/injection, schedule: Q04DX002 (ip), vehicle: water 113 % of control

C[C@@H]1C[C@@H]([C@H](O)CC2CC(=O)NC(=O)C2)C(=O)[C@@H](C)C1
inactive: dose: 3.89 mg/kg/injection, schedule: Q01DX009 (ip), vehicle: Klucel (hydroxypropylcellulose) (HPC) 99 % of control and 108 % of control | dose: 6.48 mg/kg/injection, schedule: Q01DX009 (ip), vehicle: Klucel (hydroxypropylcellulose) (HPC) 102 % of control and 104 % of control | dose: 10.8 mg/kg/injection, schedule: Q01DX009 (ip), vehicle: Klucel (hydroxypropylcellulose) (HPC) 104 % of control and 117 % of control | dose: 12.5 mg/kg/injection, schedule: Q01DX009 (ip), vehicle: water 108 % of control and 115 % of control | dose: 18.0 mg/kg/injection, schedule: Q01DX009 (ip), vehicle: Klucel (hydroxypropylcellulose) (HPC) 106 % of control and 94 % of control | dose: 20.0 mg/kg/injection, schedule: Q01DX009 (ip), vehicle: water 92 % of control | dose: 23.3 mg/kg/injection, schedule: Q04DX003 (ip), vehicle: Klucel (hydroxypropylcellulose) (HPC) 102 % of control and 104 % of control | [4] 117 % of control | dose: 30.0 mg/kg/injection, schedule: Q01DX009 (ip), vehicle: Klucel (hydroxypropylcellulose) (HPC) 113 % of control and 117 % of control | dose: 30.0 mg/kg/injection, schedule: Q01DX009 (ip), vehicle: water 95 % of control | dose: 38.9 mg/kg/injection, schedule: Q04DX003 (ip), vehicle: Klucel (hydroxypropylcellulose) (HPC) 111 % of control and 97 % of control | dose: 40.0 mg/kg/injection, schedule: Q01DX009 (ip), vehicle: water 100 % of control | [5] 99 % of control | dose: 64.8 mg/kg/injection, schedule: Q04DX003 (ip), vehicle: Klucel (hydroxypropylcellulose) (HPC) 104 % of control and 95 % of control | dose: 80.0 mg/kg/injection, schedule: Q01DX009 (ip), vehicle: water 109 % of control | dose: 100.0 mg/kg/injection, schedule: Q01DX001 (ip), vehicle: saline 110 % of control | dose: 108.0 mg/kg/injection, schedule: Q04DX003 (ip), vehicle: Klucel (hydroxypropylcellulose) (HPC) 109 % of control | dose: 120.0 mg/kg/injection, schedule: Q01DX009 (ip), vehicle: water 92 % of control | dose: 125.0 mg/kg/injection, schedule: Q01DX001 (ip), vehicle: saline 113 % of control | dose: 150.0 mg/kg/injection, schedule: Q01DX001 (ip), vehicle: saline 112 % of control | dose: 175.0 mg/kg/injection, schedule: Q01DX001 (ip), vehicle: saline 112 % of control | dose: 180.0 mg/kg/injection, schedule: Q04DX003 (ip), vehicle: Klucel (hydroxypropylcellulose) (HPC) 97 % of control | dose: 200.0 mg/kg/injection, schedule: Q01DX001 (ip), vehicle: saline 112 % of control

CN(C)P1(N(C)C)=NP(N(C)C)(N(C)C)=NP(N(C)C)(N(C)C)=N1
inactive: dose: 12.5 mg/kg/injection, schedule: Q01DX009 (ip), vehicle: saline 99 % of control | dose: 25.0 mg/kg/injection, schedule: Q01DX009 (ip), vehicle: saline 89 % of control | dose: 25.0 mg/kg/injection, schedule: Q04DX003 (ip), vehicle: saline 99 % of control | [6] 90 % of control | dose: 50.0 mg/kg/injection, schedule: Q04DX003 (ip), vehicle: saline 100 % of control | [7] 96 % of control | dose: 100.0 mg/kg/injection, schedule: Q04DX003 (ip), vehicle: saline 100 % of control

O=C1CCC2=C3C4CCCC5OC6CC(=O)CCC6=C(C6CCCC(OC2C1)C36)C54 (configuration not stated)
inactive: [6] 96 % of control | [7] 100 % of control | dose: 200.0 mg/kg/injection, schedule: Q01DX009 (ip), vehicle: saline 96 % of control | dose: 400.0 mg/kg/injection, schedule: Q01DX009 (ip), vehicle: saline 100 % of control
